Source: US20230212533A1 (THE REGENTS OF THE UNIVERSITY OF MICHIGAN, priority 2020, published 2023)
“And” between values parts separate entries of the source, which are not always exact repeats. Equal values may be shown once. Read-outs that look alike come from different tables or passages of the source.

Assays:
[1] = system: L-6-hydroxynicotine oxidase (LHNO, 3NG7), wild type, SEQ ID NO:13; details: cited from earlier work; for kcat/Km: wild-type LHNO
[2] = biological target: T1, Pseudomonas putida S16 nicotine oxidoreductase NicA2, wild type, SEQ ID NO:131 (Pseudomonas putida, UniProt F8G0P2)
Target sequence in this assay (F8G0P2 2-482): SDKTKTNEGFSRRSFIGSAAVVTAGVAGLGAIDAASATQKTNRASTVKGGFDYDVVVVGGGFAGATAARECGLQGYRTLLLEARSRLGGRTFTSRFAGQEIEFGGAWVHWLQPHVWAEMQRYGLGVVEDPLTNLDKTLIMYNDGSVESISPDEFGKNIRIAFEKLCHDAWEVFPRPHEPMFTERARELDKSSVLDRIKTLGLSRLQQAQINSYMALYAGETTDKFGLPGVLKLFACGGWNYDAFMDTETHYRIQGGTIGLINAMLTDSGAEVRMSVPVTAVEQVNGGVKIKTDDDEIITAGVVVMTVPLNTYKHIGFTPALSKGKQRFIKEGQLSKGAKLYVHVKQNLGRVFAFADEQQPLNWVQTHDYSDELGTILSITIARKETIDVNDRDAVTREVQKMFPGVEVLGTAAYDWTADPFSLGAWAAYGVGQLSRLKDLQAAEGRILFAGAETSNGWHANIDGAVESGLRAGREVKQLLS
Method: All stopped-flow experiments were performed in 40 mM HEPES-KOH, pH 7.5, 100 mM NaCl, 10% glycerol at 4° C. NicA2 and CycN solutions were made anaerobic in glass tonometers by repeated cycles with vacuum and anaerobic argon^42. When needed, NicA2's FAD was reduced in the anaerobic tonometer by titrating with a dithionite solution housed in a gas-tight Hamilton syringe. The dithionite solution was slowly added up to the point where NicA2's flavin reached the fully-reduced hydroquinone state, and the redox status of the flavin was spectrophotometrically monitored during the titration using a Shimadzu UV-1900 UV-VIS spectrophotometer. […] Buffer containing O2 at specific concentrations was prepared by sparging different O2/N2 gas ratios through buffer in a gas-tight syringe for at least 15 minutes at room temperature. The various O2/N2 gas ratios were prepared from O2 and N2 gas cylinders using a Maxtec MaxBlend 2 gas mixer, and the dissolved O2 concentration in the buffer solution was calculated using a Henry's law constant for O2 of 770 atm M^−1.
Stopped-flow experiments were conducted using a TgK Scientific SF-61 DX2 KinetAsyst stopped-flow instrument that had been previously equilibrated with a glucose/glucose oxidase solution to make the internal components of the system anaerobic. […] The reaction of NicA2-Flred with O2 was monitored using the instrument's multi-wavelength CCD detector (1.6 ms data interval time). […] Kinetic traces were fit to sums of exponentials using KaleidaGraph (Synergy Software) to determine observed rate constants.
We next monitored the reaction of NicA2-Flred with O2 in the oxidative half reaction via stopped-flow experiments.

Escherichia coli = test: toxicity to E. coli; assay type: cell-based
Method: (§1) Directed evolution is a powerful means to improve enzyme function. […] The experiments are performed using the fast-growing model organism, Escherichia coli, which permits evaluation of many variants of NicA2 for performance-enhancing mutations. […] Identification of these variants is expected to reveal the molecular determinants of wild-type NicA2's low O2-dependent activity.
as §1, with “were” for “are”, “permitted” for “permits”

[3] = cited from earlier work
[4] = biological target: T1, Pseudomonas putida S16 nicotine oxidoreductase NicA2, wild type, SEQ ID NO:131; details: WT P. putida S16; about 5 mM nicotine degraded by about 3.5 nM NicA2 in 16 hours
Target sequence in this assay (F8G0P2 39-482): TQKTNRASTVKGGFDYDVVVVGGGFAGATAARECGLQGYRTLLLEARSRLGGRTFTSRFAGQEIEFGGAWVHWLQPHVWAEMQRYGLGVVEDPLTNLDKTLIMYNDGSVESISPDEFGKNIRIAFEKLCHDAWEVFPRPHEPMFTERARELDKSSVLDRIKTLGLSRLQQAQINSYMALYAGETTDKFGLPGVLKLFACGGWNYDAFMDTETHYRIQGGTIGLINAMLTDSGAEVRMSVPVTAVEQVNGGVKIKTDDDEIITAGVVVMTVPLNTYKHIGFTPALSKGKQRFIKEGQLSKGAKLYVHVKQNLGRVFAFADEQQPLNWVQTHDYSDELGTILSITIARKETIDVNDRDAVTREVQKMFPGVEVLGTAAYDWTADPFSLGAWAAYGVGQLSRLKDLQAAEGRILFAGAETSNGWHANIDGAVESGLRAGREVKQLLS
Method: Both wild-type and ΔcycN strains were grown overnight in LB. The next day, these cultures were diluted to OD 0.1 in 5 mL M9 salts+0.4% glycerol and allowed to grow for 2 hours. […] From then on, the cultures were sampled at 2, 4, 8, 24, and 49 hours. 200 μL of culture was extracted at each time point and spun down at 16,000 g for 10 minutes. The supernatant was isolated, and 100 μL supernatant was mixed with 300 μL methanol to prepare HPLC samples. The cell pellet was resuspended in 100 μL Bacterial Protein Extraction Reagent (B-PER; Thermo Fisher) and allowed to incubate at room temperature for 15 minutes to complete lysis. After this time had elapsed, 25 μL of 5× reducing gel loading buffer was added to each sample.
Samples for HPLC were further clarified by spinning at 16,000 g for 30 minutes. 100 μL of each clarified sample was placed into autosampler vials. […] Samples and standards were within the linear range of detection, and the absorbance peaks were integrated for quantification.
Samples for western blot analysis were boiled for 5 minutes. […] Protein bands were quantified using LI-COR Odyssey software, and the NicA2 standard curve was used to determine the linear range of detection and concentration of NicA2 at each time point from the experiment.

[5] = biological target: T1, Pseudomonas putida S16 nicotine oxidoreductase NicA2, wild type, SEQ ID NO:131; details: estimated from reported doubling time of one hour
Target sequence in this assay (F8G0P2 39-482): as above

[6] = biological target: T1, Pseudomonas putida S16 nicotine oxidoreductase NicA2, wild type, SEQ ID NO:131; details: anaerobic, pH 7.5, 4° C., 450 nm
Target sequence in this assay (F8G0P2 2-482): as the sequence (F8G0P2 2-482) above
Method: All stopped-flow experiments were performed in 40 mM HEPES-KOH, pH 7.5, 100 mM NaCl, 10% glycerol at 4° C. NicA2 and CycN solutions were made anaerobic in glass tonometers by repeated cycles with vacuum and anaerobic argon^42. When needed, NicA2's FAD was reduced in the anaerobic tonometer by titrating with a dithionite solution housed in a gas-tight Hamilton syringe. The dithionite solution was slowly added up to the point where NicA2's flavin reached the fully-reduced hydroquinone state, and the redox status of the flavin was spectrophotometrically monitored during the titration using a Shimadzu UV-1900 UV-VIS spectrophotometer. […] The various O2/N2 gas ratios were prepared from O2 and N2 gas cylinders using a Maxtec MaxBlend 2 gas mixer, and the dissolved O2 concentration in the buffer solution was calculated using a Henry's law constant for O2 of 770 atm M^−1.
Stopped-flow experiments were conducted using a TgK Scientific SF-61 DX2 KinetAsyst stopped-flow instrument that had been previously equilibrated with a glucose/glucose oxidase solution to make the internal components of the system anaerobic. […] The reaction of NicA2-Flred with O2 was monitored using the instrument's multi-wavelength CCD detector (1.6 ms data interval time). […]

[7] = system: Pseudomonas putida S16 nicotine oxidoreductase NicA2, wild type, SEQ ID NO:131; details: in vitro, cited from earlier work

For `CN1CCC[C@H]1c1ccc(O)nc1` [L-6-hydroxynicotine], the kcat ([1]; O2 as the electron acceptor for flavin oxidation, substrate L-6-hydroxynicotine) is given as 78 s⁻¹ and the kcat/Km [1] is given as 600000 M⁻¹ s⁻¹.
For `O=O` [O2, molecular oxygen], the “kobs of NicA2-Flred oxidation by O2” value ([2]; at ~250 μM O2, calculated from bimolecular rate constant) is listed as 0.007 s⁻¹, the “bimolecular rate constant for flavin oxidation by O2 (kox^O2)” value ([2]; pH 7.5, 4° C., 450 nm) is listed as 27 ± 1 M⁻¹ s⁻¹ and 27 M⁻¹ s⁻¹ and the kcat ([1]; reaction with oxygen) is listed as 78 s⁻¹.
In the case of `CN1CCC[C@H]1c1cccnc1` [L-nicotine], the kcat/Km [1] is listed as 42 M⁻¹ s⁻¹.
In the case of `CNCCCC(=O)c1cccnc1` [pseudooxynicotine], the “concentration up to which non-toxic to E. coli” value (Escherichia coli; e. coli culture) is listed as “at least 5 mg/mL”, the “addictiveness in animal models” value [3] is listed as “non-addictive” and the “toxicity in animal models” value [3] is listed as “non-toxic”.
In the case of `CN1CCC[C@H]1c1cccnc1` [nicotine], the “in vivo turnover rate” value [4] is reported as “about 24 s^−1”, the “in vivo turnover rate (kcat)” value [5] is reported as 1 s⁻¹ and the “concentration toxic to E. coli” value (Escherichia coli; about this level or higher) is reported as “about 1 mg/mL”. For the same molecule, the “kobs (fastest phase, reduction of NicA2's FAD by nicotine)” value [6] was “about 180 s^−1”, the “turnover number (O2-dependent nicotine turnover)” value ([7]; O2 as electron acceptor) was 0.007 s⁻¹ and the “kcat (conversion of nicotine to pseudooxynicotine)” value ([7]; oxygen as electron acceptor) was 0.007 s⁻¹. The “kcat for degrading nicotine relative to NicA2” value ([1]; oxygen dependent reaction) was 5 fold.
